“And” between values parts separate entries of the source, which are not always exact repeats. Equal entries are not always repeated. Where two headings read alike, the source gives them in different places.
Columns and labels:
MOLT-4 = assay: In vitro human tumor cell line cytotoxicity assay; type: cell-based; conditions: read-out: RelIC50
PLCPRF5 = assay: In vitro human tumor cell line cytotoxicity assay; type: cell-based; conditions: for IC50: Homo sapiens
K-562 = assay: In vitro human tumor cell line cytotoxicity assay; type: cell-based; conditions: K562, read-out: RelIC50
SNU-387 = assay: In vitro human tumor cell line cytotoxicity assay; type: cell-based; conditions: for IC50: Homo sapiens
Jurkat, Clone E6-1 = assay: In vitro human tumor cell line cytotoxicity assay; type: cell-based; conditions: read-out: RelIC50
C3A = assay: In vitro human tumor cell line cytotoxicity assay; type: cell-based; conditions: for IC50: Homo sapiens
HEL = assay: In vitro human tumor cell line cytotoxicity assay; type: cell-based; conditions: read-out: RelIC50
COLO680N = assay: In vitro human tumor cell line cytotoxicity assay; type: cell-based; conditions: COLO-680N, read-out: RelIC50
T.T = assay: In vitro human tumor cell line cytotoxicity assay; type: cell-based; conditions: TT, read-out: RelIC50
HepG2 = assay: In vitro human tumor cell line cytotoxicity assay; type: cell-based; conditions: for IC50: Homo sapiens
TE-8 = assay: In vitro human tumor cell line cytotoxicity assay; type: cell-based; conditions: read-out: RelIC50
KG-1 = assay: In vitro human tumor cell line cytotoxicity assay; type: cell-based; conditions: read-out: RelIC50
GR-ST = assay: In vitro human tumor cell line cytotoxicity assay; type: cell-based; conditions: read-out: RelIC50
TALL-1 = assay: In vitro human tumor cell line cytotoxicity assay; type: cell-based; conditions: read-out: RelIC50
KYSE = assay: In vitro human tumor cell line cytotoxicity assay; type: cell-based; conditions: read-out: RelIC50
TE-4 = assay: In vitro human tumor cell line cytotoxicity assay; type: cell-based; conditions: read-out: RelIC50
Jurkat = assay: In vitro human tumor cell line cytotoxicity assay; type: cell-based; conditions: read-out: RelIC50
TE-9 = assay: In vitro human tumor cell line cytotoxicity assay; type: cell-based; conditions: read-out: RelIC50
TE-14 = assay: In vitro human tumor cell line cytotoxicity assay; type: cell-based; conditions: read-out: RelIC50
P30/OHK = assay: In vitro human tumor cell line cytotoxicity assay; type: cell-based; conditions: read-out: RelIC50
OE 21 = assay: In vitro human tumor cell line cytotoxicity assay; type: cell-based; conditions: OE21, read-out: RelIC50
[1] = system: HepG2-GFP human hepatocellular carcinoma; assay: Orthotopic mouse model of human liver cancer, tumor burden; type: in vivo, athymic nude mice; conditions: for tumor inhibition rate IR(%): from final average tumor weights
Description: Female athymic nude mice (6 weeks of age) were used in this study. The animals were purchased from Beijing HFK Bioscience, Co., Ltd and maintained in a High Efficiency Particulate Air Filter (HEPA) filtered environment with cages, food, and bedding sterilized by irradiation or autoclaving. A total of 32 nude mice were used for the study. HepG2-GFP human hepatocellular carcinoma cells (AntiCancer, Inc., San Diego, CA) were incubated with RPMI-1640 (Gibco-BRL, Life Technologies, Inc.), which contained 10% FBS. Cells were grown in a CO2 Water Jacketed Incubator (Forma Scientific) maintaining 37°C and a 5% CO2/95% air atmosphere. Cell viability was determined by trypan blue exclusion analysis. Five female athymic nude mice were injected subcutaneously with a single dose of 5 x 10^6 HepG2-GFP cells. Tumors were harvested when their size reached 1cm^3 and the tumor tissues were then cut into small fragments of 1mm^3. Forty female nude mice were implanted orthotopically with a single piece of tumor fragment, which was derived from a subcutaneous tumor model of HepG2-GFP human hepatocellular carcinoma. The tumor tissue was orthotopically implanted in the right lobe of the liver in each mouse by SOI (Surgical Orthotopic Implantation). Briefly, an upper abdominal incision of 1cm was made under anesthesia. Right lobe of the liver was exposed and a part of the liver surface was injured mechanically by scissors. Then a piece of tumor fragment was fixed within the liver tissue, the liver was returned to the peritoneal cavity and the abdominal wall finally closed. Mice were kept in laminar-flow cabinets under specific pathogen-free-conditions.
Treatment was started three days after tumor implantation when the implanted tumors reached an average size of around 1 mm^2. The 32 tumor-bearing mice were randomly divided into four experimental groups of 8 mice each. Each cage was clearly marked for its group with four mice per cage. […] Table. Groups and treatment protocol
During the period of the study, all of the experimental mice were checked daily for mortality or signs of morbidity. […] The body weights of the mice were measured twice weekly during the study period. Images of tumor growth and progression were acquired twice a week during the period of the study with the FluorVivo imaging system, Model 300/Mag (INDEC, CA, USA). […] Livers were exposed for imaging, after which the tumors were removed and weighted with an electronic balance (Sartorius BS 124 S, Germany). Tumor tissues were kept in formalin for further analysis. Comparisons of body weights and tumor burdens in different groups were analyzed using the Student's t-test with an α = 0.05 (two-sided). After intravenously injection of the test agents, the mice had no lying, no autonomous activity reduction. The experimental animals were generally in good condition. Table. Comparison of mean mice body weight at the end of the study
The progressions of orthotopic HepG2-GFP hepatocellular carcinoma in different groups were monitored by real time imaging. Images were acquired twice a week. Typical tumor images at the end of the study in each group and tumor growth curves derived from the signals of tumor fluorescence, which were analyzed using the Power Station software (INDEC Biosystems, CA, USA), are shown in figure 6 and figure 7, respectively Table. Average tumor size in each group (mm2)

C[C@H](OP(=O)(N1CC1)N1CC1)c1ccc([N+](=O)[O-])c(Oc2cccc(C(=O)N(C)C)c2)c1 (single isomer, unassigned) [TH3424]
IC50 (MOLT-4): 10 nM
Max Inhibition% (PLCPRF5): 85.2%
Min Inhibition% (PLCPRF5): 1.4%
IC50 (PLCPRF5; PLC-PRF-5, read-out: AbsIC50): 111 nM
IC50 (PLCPRF5; PLC-PRF-5, read-out: RelIC50): 128 nM
IC50 (K-562): > 1000 nM
Max Inhibition% (SNU-387): 99.3%
Min Inhibition% (SNU-387): -14.8%
IC50 (SNU-387; read-out: AbsIC50): 70.1 nM
IC50 (SNU-387; read-out: RelIC50): 58.7 nM
IC50 (Jurkat, Clone E6-1): 24 nM
Max Inhibition% (C3A): 98.7%
Min Inhibition% (C3A): -2.1%
IC50 (C3A; read-out: AbsIC50): 9.3 nM
IC50 (C3A; read-out: RelIC50): 4.1 nM
IC50 (HEL): 224 nM
IC50 (COLO680N): 66 nM
IC50 (T.T): 6 nM
Max Inhibition% (HepG2): 100.2%
Min Inhibition% (HepG2): 3.4%
IC50 (HepG2; read-out: AbsIC50): 8.6 nM
IC50 (HepG2; read-out: RelIC50): 7.3 nM
IC50 (TE-8): 19 nM
IC50 (KG-1): 15.3 nM
IC50 (GR-ST): 99 nM
IC50 (TALL-1): 30 nM
IC50 (KYSE): 11 nM
IC50 (TE-4): 9.9 nM
IC50 (Jurkat): 40 nM
IC50 (TE-9): 11 nM
IC50 (TE-14): 4.7 nM
IC50 (P30/OHK): > 1000 nM
IC50 (OE 21): 5.2 nM
Tumor area (mm^2) (mean ± sd) ([1]; 2.5mg/kg, QWx6, I.P., Day 35): 1.2 ± 1.1 mm^2 and 1.2 ± 1.1(Day 35) mm^2
Tumor area (mm^2) (mean ± sd) ([1]; 2.5mg/kg, QWx6, I.P., Day 49): 2.0 ± 2.2 mm^2 and 2.0 ± 2.2(Day 49) mm^2
Tumor weight (g) (mean ± sd) ([1]; 2.5mg/kg, QWx6, I.P., Day 49): 0.0081±0.0088 g and 0.0081±0.0088 (Day 49) g
average fluorescence imaging readout area as % of that in the negative control group ([1]; 2.5 mg/kg, day 35): around 8%
average fluorescence imaging readout area as % of that in the negative control group ([1]; 2.5 mg/kg, day 49 after treatment): around 8%
tumor inhibition rate IR(%) ([1]; 2.5 mg/kg): 94.8%
Tumor area (mm^2) (mean ± sd) ([1]; 5mg/kg, QWx3, I.P.): 0 mm^2 and 0.0 ± 0.0 mm^2
Tumor weight (g) (mean ± sd) ([1]; 5mg/kg, QWx3, I.P.): 0 g and 0.0000 ± 0.0000 g
tumor inhibition rate IR(%) ([1]; 5mg/kg): 100%
average tumor weight as % of that in the negative control group ([1]; high dose group, 5mg/kg): 0%
average tumor weight as % of that in the negative control group ([1]; low dose group, 2.5mg/kg): 5.2%
